Assay results: patent US12503432B2, “Ionizable lipids for nucleic acid delivery” (Global Life Sciences Solutions Canada ULC, priority 2019, dated 2025)

How the values were obtained:
[1] = LNP characterization: size and PDI by dynamic light scattering, mRNA encapsulation efficiency by RiboGreen assay; assay type: physicochemical
Protocol: Particle sizes and “polydispersity index” (PDI) of the lipid particle were measured by dynamic light scattering (DLS). PDI indicates the width of the particle distribution. This is a parameter calculated from a cumulative analysis of the (DLS)-measured intensity autocorrelation function assuming a single particle size mode and a single exponential fit to the autocorrelation function. […] The particles produced by mechanical micromixers such as the NanoAssemblr® Spark™ and NanoAssemblr® Benchtop (Precision NanoSystems Inc.) are substantially homogeneous in size assuming all other variables are neutral. A lower PDI indicates a more homogenous population of lipid particles. The Spark™ instrument is used in a screening setting to identify the lead compositions. Once the composition is selected, the lipid particle can be fine-tuned using the NanoAssemblr® Benchtop. Once the process parameters Flow Rate Ratio and Total Flow Rate is identified for the specific nanoparticle composition, the nanoparticle technology can be scaled up using the same process parameter values.
Lipid particles were also manufactured by a larger microfluidic mixer instrument, the NanoAssemblr® Ignite™ for testing. Briefly, 350 μL of mRNA was diluted using 100 mM sodium acetate buffer to the required concentration of 0.2 to 0.3 mg/mL. Lipid particle samples were then prepared by running both fluids, namely, nucleic acids in aqueous solvent and Lipid Mix in ethanol at a flow ratio of 3:1 and at a total flow rate of 12 ml/min in the microfluidic mixer. Following mixing in the microfluidic device, the post cartridge lipid nucleic acid particle sample was diluted into RNAse free tubes containing three to 40 volumes of phosphate buffered saline (PBS), pH 7.4. Ethanol was finally removed through dialysis in PBS, pH 7, or using Amicon™ centrifugal filters (Millipore, USA) at 3000 RPM, or using TFF systems. Once the required concentration was achieved, the lipid nucleic acid particles were filter sterilized using 0.2 μm filters in aseptic conditions. Final encapsulation efficiency was measured by the Ribogreen™ assay. Quant-iT™ RiboGreen® RNA Reagent and Kit (Invitrogen) following manufacturer directions.
Messenger RNA or plasmid nucleic acid therapeutic (NAT) as described below, was diluted using sodium acetate buffer to the required concentration. Lipid nucleic acid particle (LNAP) samples were then prepared by running both fluids using the NanoAssemblr® Spark instrument. Briefly, […] of nucleic acids in 100 mM sodium acetate buffer in a total volume of 32 μL was mixed with 16 μL of 37.5 mM lipid mix solution as required by the N/P ratios (4, 6, or 10 in illustrated examples). The microfluidically mixed lipid nucleic acid particles (LNAP) made in the instrument were immediately diluted down with 48 μL Ca++ and Mg++ free 1× PBS at pH 7.4 in the aqueous output well. These LNAP were immediately collected into microcentrifuge tubes containing 96 μL of the same buffer at pH 7.4. Encapsulation efficiency was measured by a modified Ribogreen™ assay (Quanti-iT RiboGreen™ RNA assay kit, Fisher). This information was used to establish the desired dosage.
After the lipid particles were made as described in Example 17, particle size (hydrodynamic diameter of the particles) was determined by Dynamic Light Scattering (DLS) using a ZetaSizer™ Nano ZS™ (Malvern Instruments, UK). He/Ne laser of 633 nm wavelength was used as the light source. Data were measured from the scattered intensity data conducted in backscattering detection mode (measurement angle=173). Measurements were an average of 10 runs of two cycles each per sample. Z-Average size was reported as the particle size, and is defined as the harmonic intensity averaged particle diameter. These LNP characteristics, as well as the results of the mRNA encapsulation efficiency for various Lipid Mixes are also described in the application are shown in Tables 4, 5 and 6. […]

C57BL/6 mice = test: In vivo delivery of EPO-encoded mRNA LNP via intravenous route, serum EPO ELISA; parameters: key to EPO Protein expression: IV in mice: *: The number of asterix symbols indicates protein expression levels interpreted by the inventors from quantitative data; **: The number of asterix symbols indicates protein expression levels interpreted by the inventors from quantitative data; ***: The number of asterix symbols indicates protein expression levels interpreted by the inventors from quantitative data; ****: The number of asterix symbols indicates protein expression levels interpreted by the inventors from quantitative data; *****: The number of asterix symbols indicates protein expression levels interpreted by the inventors from quantitative data; *******: The number of asterix symbols indicates protein expression levels interpreted by the inventors from quantitative data; details: qualitative grade interpreted from quantitative data
Text: Lipid Nanoparticles with the composition IL/DSPC/Cholesterol/PEG-DMG2000 (LM 02—see Table 3) were used to encapsulate recombinant human erythropoietin (EPO) encoded mRNA with 5-moU modifications [TriLink CleanCapo 5-moU EPO mRNA L7201]. To create the LNP, lipid mix in ethanol was microfluidically mixed with a low PH buffered solution of 5-moU EPO mRNA mixer at an N/P ratio of 6 using a NanoAssemblr® Ignite™ microfluidic mixer. The microfluidically mixed particles were downstream processed using Amicon® ultra 15 10 kDa MWCO units (EMD Millipore) filtration technique. The RNA loaded lipid particles were then characterized for size, PDI and Encapsulation Efficiency (EE). Size and PDI were measured using dynamic light scattering techniques described above, and nucleic acid encapsulation efficiency was calculated using a Quant-iT RiboGreen RNA assay as described supra, modified to use hEPO mNA as the standard instead if the standard RNA in the kit. The hydrodynamic diameter of these mRNA-LNPs was ˜70 nm with a PDI in the range of 0.02 to 0.1 and an encapsulation efficiency of ˜97.8%.
Animals were handled according to the Institutional Animal Care and Use Committee ethics protocols. For experiments, 6-8 week old C57BL/6 mice were purchased from Envigo (South Kent, WA, USA). For in vivo activity, female C57BL/6 mice were treated intravenously with EPO mRNA LNPs at specified dosages of 0.5-3 mg/Kg. Samples of 50-75 μL of blood were collected 6 h post administration via saphenous vein, and at regular time intervals of 24 h or 48 h.
After harvest, blood was immediately prepared to produce serum samples using standard techniques, and stored at −80 degrees C. Briefly, after collection, the blood was allowed to clot at room temperature for 15-30 minutes. The clot was removed by centrifuging the tubes at 1000-2000×g for 10 min at 4 degrees Celsius. The clear golden-yellow color supernatant was carefully removed and transferred to sterile screw-capped clear polypropylene tubes on ice. The serum was then stored, if necessary, at −80° C. until analysis.
Samples were thawed, then analyzed at appropriate dilutions for EPO protein expression and for cytokine/chemokine levels. The total serum EPO levels were evaluated using Quantikine® IVD EPO ELISA kit (Bio-Techne, Minneapolis, MN, USA).
Following i.v administration of a 0.5 mg/Kg dose of recombinant human EPO-encoded mRNA LNPs containing ionizable lipid MC3, PNI 121 or PNI 123 using the LM02 composition at N/P 6, EPO expression levels at 6 h (upper, FIG. 6) and at 24 h (lower, FIG. 6) in C56BL/6 mice were examined; hEPO protein was measured using Quantikine® IVD® ELISA Human Erythropoietin Immunoassay protocol.

[2] = TNS fluorescence assay: experimental pKa of formulated lipid nanoparticles; assay type: physicochemical; details: experimental surface pKa of empty LNP, cationic lipid/DSPC/cholesterol/PEG-lipid (50/10/38.5/1.5)
Protocol: The pKa of each cationic lipid was determined in lipid nanoparticles using an assay based on fluorescence of 6-(p-Toluidino)-2-naphthalenesulfonic acid sodium salt (TNS, Sigma Aldrich), which is a fluorescent probe for the conformational state of proteins^5. Empty lipid nanoparticles comprising of cationic lipid/DSPC/cholesterol/PEG-lipid (50/10/38.5/1.5) in distilled water at a concentration of 3.125 mM total lipid are formulated using NanoAssemblr® Spark™, and were then was characterized for LNP quality on the Zetasizer™ using a 30× dilution with 1×PBS in the low volume cuvette. Lipid nanoparticles were further diluted 4× using distilled water to 0.781 mM total lipid. TNS was prepared as a 25 μM stock solution in distilled water. Then 6.4 μL of diluted LNP samples of 0.781 mM total lipid were mixed with 10 μL of diluted TNS to a final volume of 250 μL with buffer containing 10 mM HEPES, 10 mM MES, 10 mM NH4OAc and 130 mM NaCl where the pH ranged from 3 to 9 in 0.5 pH increments.
Samples were mixed thoroughly, and the fluorescence intensity was measured at room temperature in a BioTek™ Synergy™ H1 Hybrid Multi-Mode Monochromator™ Fluorescence Microplate Reader using excitation and emission wavelengths of 321 nm and 445 nm respectively. A sigmoidal best fit analysis was applied to the fluorescence data using GraphPad Prism™ software, and the pKa was measured as the pH at half-maximal fluorescence intensity.

[3] = 5-moU EPO encoded LNPs, IL:DSPC:cholesterol:DMG-PEG (50:10:38.5:1.5), N/P 6
[4] = OVA encoded LNPs, payload WT OVA, LM02, N/P 8
[5] = Table 4 LNPs, payload and lipid mix not stated

In the case of CC/C=C\CC1C(CC(=O)OCC(COCCCCCCCC/C=C\C/C=C\CCCCC)OCCCCCCCC/C=C\C/C=C\CCCCC)CCC1OC(=O)CCN(C)C (centres unmarked) [PNI 128], the “Diameter (Z. ave, nm)” value [1, 3] is reported as 64.8 nm, the “Encapsulation Efficiency (%)” value [1, 3] is reported as 97.1% and the “Polydispersity Index (PDI)” value [1, 3] is reported as 0.04. For the same molecule, the “Diameter (Z. ave, nm)” value [1, 4] was 74.9 nm, the “Encapsulation Efficiency (%)” value [1, 4] was 97.0% and the “Polydispersity Index (PDI)” value [1, 4] was 0.02. The “Diameter (Z. ave, nm)” value [1, 5] was 61.7 nm, the “Encapsulation Efficiency (%)” value [1, 5] was 88.2% and the “Polydispersity Index (PDI)” value [1, 5] was 0.09. The “EPO Protein expression: IV in mice” value (C57BL/6 mice) was “****” and the pKa [2] was 5.56.
CC/C=C\CC1C(CC(=O)OCC(COCCCCCCCC/C=C\C/C=C\CCCCC)OCCCCCCCC/C=C\C/C=C\CCCCC)CCC1OC(=O)C1CCN(C)C1 (centres unmarked) [PNI 135] gave a pKa [2] of 5.48.
In the case of CC/C=C\CC1C(CC(=O)OCC(COCCCCCCCC/C=C\C/C=C\CCCCC)OCCCCCCCC/C=C\C/C=C\CCCCC)CCC1OC(=O)Cc1cn(C)cn1 (centres unmarked) [PNI 143], the “Diameter (Z. ave, nm)” value [1, 3] is reported as 88.0 nm, the “Encapsulation Efficiency (%)” value [1, 3] is reported as 98.7% and the “Polydispersity Index (PDI)” value [1, 3] is reported as 0.87. The pKa [2] was 4.31.
CCCCC/C=C\C/C=C\CCCCCCCCOCC(COC(=O)CC1CCC(OC(=O)CCCN(C)C)C1)OCCCCCCCC/C=C\C/C=C\CCCCC (centres unmarked) [PNI 148] showed a pKa [2] of 6.77.
Work on CC/C=C\CC1C(CC(=O)OCC(COC(=O)CCCCCCC/C=C\C/C=C\CCCCC)OC(=O)CCCCCCC/C=C\C/C=C\CCCCC)CCC1OC(=O)CCCN(C)C (centres unmarked) [PNI 269] yielded a pKa [2] of 6.28.
With CC/C=C\CC1C(CC(=O)OCCC(CCCCCCCC/C=C\C/C=C\CCCCC)OC(=O)C(CCCCCC)CCCCCCCC)CCC1OC(=O)CCCN(C)C (centres unmarked) [PNI 510] the pKa [2] was 6.2.
For CC/C=C\CC1C(CC(=O)OCC(COC(=O)CCCCCCCC2CC2CCCCCCCC)OC(=O)CCCCCCCC2CC2CCCCCCCC)CCC1OC(=O)CCCN(C)C (centres unmarked) [PNI 515], the pKa [2] was 6.27.
For CC/C=C\CC1C(CC(=O)OCC(COCCCCCCCCC2CC2CCCCCCCC)OCCCCCCCCC2CC2CCCCCCCC)CCC1OC(=O)CCCN(C)C (centres unmarked) [PNI 543], the “Diameter (Z. ave, nm)” value [1, 3] was 73.6 nm, the “Encapsulation Efficiency (%)” value [1, 3] was 98.7% and the “Polydispersity Index (PDI)” value [1, 3] was 0.14. The “EPO Protein expression: IV in mice” value (C57BL/6 mice) was “***” and the pKa [2] was 6.31.
CC/C=C\CC1C(CC(=O)OCC(COCCCCCCCCCCCCCC)OCCCCCCCCCCCCCC)CCC1OC(=O)CCN(C)C (centres unmarked) [PNI 547] showed a pKa [2] of 5.95.
CCCCCCCCCCCCCCOCC(COC(=O)CC1CCC(OC(=O)CCN(C)C)C1CCCCC)OCCCCCCCCCCCCCC (centres unmarked) [PNI 548] showed a pKa [2] of 5.5.
With CC/C=C\CC1C(CC(=O)OCC(COC(=O)CCCCCCCC2CC2CCCCCCCC)OC(=O)CCCCCCCC2CC2CCCCCCCC)CCC1OC(=O)CCN(C)C (centres unmarked) [PNI 551] the pKa [2] was 5.5.
With CC/C=C\CC1C(CC(=O)OCCC(CCCCCCCC/C=C\C/C=C\CCCCC)OC(=O)C(CCCCCC)CCCCCCCC)CCC1OC(=O)CCN(C)C (centres unmarked) [PNI 552] the pKa [2] was 5.42.
For CC/C=C\CC1C(CC(=O)OCCC(CCCCCCCC)OC(=O)C(CCCCCC)CCCCCCCC)CCC1OC(=O)CCCN(C)C (centres unmarked) [PNI 562], the pKa [2] was 6.36.
With CC/C=C\CC1C(CC(=O)OCCC(CCCCCCCC/C=C\C/C=C\CCCCC)OC(=O)C(CCCCCC)CCCCCCCC)CCC1OC(=O)C1(C)CCN(C)CC1 (centres unmarked) [PNI 563] the pKa [2] was 5.96.
Work on CC/C=C\CC1C(CC(=O)OCC(COCCCCCCCC/C=C\C/C=C\CCCCC)OCCCCCCCC/C=C\C/C=C\CCCCC)CCC1OC(=O)CN1CCN(C)CC1 (centres unmarked) [PNI 567] yielded a pKa [2] of 6.23.
